What all share (type): cell-based
Assay [1] concerns Aspergillus flavus. Description: MIC, YAG medium. The following applies: 24 h at 35° C, MIC banded into grades; for MIC: Aspergillus flavus, 24 h, read-out: MIC grade, A. flavus. As for the experimental part: (§1) Between 1 and 5 mgs of compound were accurately weighed out into a sterile Eppendorf tube. The compound was dissolved in DMSO to give a solution containing 5 mg/mL. Tubes were stored at −20° C. until required.
(§2) On the day of testing thawed solutions were vortex mixed to ensure homogeneity. 30 μL of solution was removed and added to 570 μL of sterile water in a separate sterile Eppendorf. The thoroughly mixed solution was used to prepare a series of doubling dilutions in water, in a deep well plate. Thirteen replicate plates were prepared using a Minitrak by aspirating 20 μL from each well into eleven clear polystyrene 96 well plates.
(§3) Spores of Aspergillus spp. (Aspergillus fumigatus [two strains], Aspergillus terreus [two strains], Aspergillus niger and Aspergillus flavus) were harvested from cultures grown on Sabarauds agar for 5 days, and resuspended in PBS/Tween 80 to approx 1×10^7 cfu/mL. Each organism suspension was diluted in YAG medium (1% glucose, 1% ammonium chloride and 0.5% yeast extract) to 0.5−2×10^4 cfu/mL. 80 μL of an organism suspension was added to each well of the plate containing drug dilutions.
(§4) This produced MIC plates with a drug range 50-0.05 mg/L and organism inocula of 1−2×10^4 cfu/mL for Aspergillus spp. All plates were incubated for 24 h at 35° C. Growth was assessed by monitoring the optical density at 485 nm for each well. The MIC of a compound is the lowest drug concentration that inhibits growth of an organism by >70% compared with a drug free control. MICs are recorded as mg/L. In cases where the MIC of an organism is […] mg/L the MIC is repeated using a concentration range of 0.5-0.0005 mg/L.
(§5) The following organisms were tested: Aspergillus flavus, Aspergillus fumigatus AF293 and AF210, Aspergillus niger, Aspergillus terreus AT4 and AT49, Candida albicans, Candida glabrata, Candida krusei, Candida parapsilosis and Candida tropicalis.

The test system of assay [2] is Aspergillus fumigatus AF210. Description: MIC, YAG medium. The following applies: 24 h at 35° C, MIC banded into grades; for MIC: Aspergillus fumigatus, read-out: MIC grade, A. fumigatus 210. The procedure:
as §1, §2, §3, §4, §5

For assay [3], the system named is Aspergillus fumigatus AF293. Description: MIC, YAG medium. The following applies: 24 h at 35° C, MIC banded into grades; for MIC: Aspergillus fumigatus, read-out: MIC grade, A. fumigatus. As for the experimental part:
as §1, §2, §3, §4, §5

The test system of assay [4] is Aspergillus niger. Description: MIC, YAG medium. The following applies: 24 h at 35° C, MIC banded into grades; for MIC: Aspergillus niger, read-out: MIC grade, A. niger. As for the experimental part:
as §1, §2, §3, §4, §5

The subject of assay [5] is Aspergillus terreus AT49. Kind of assay: MIC, YAG medium. The following applies: 24 h at 35° C, MIC banded into grades; for MIC: Aspergillus terreus, read-out: MIC grade, A. terreus 49. As for the experimental part:
as §1, §2, §3, §4, §5

The test system of assay [6] is Aspergillus terreus AT4. Description: MIC, YAG medium. The following applies: 24 h at 35° C, MIC banded into grades; for MIC: Aspergillus terreus, read-out: MIC grade, A. terreus. The procedure: as §1, §2, §3, §4, §5
Assay [7] deals with Aspergillus flavus. Description: MIC, RPMI medium. The following applies: MIC banded into grades; for MIC: Aspergillus flavus, read-out: MIC grade, A. flavus. As for the experimental part:
as §1, §2
(§6) Assays were also performed in RPMI medium for both Aspergillus spp. (strains described above) and Candida spp. (Candida albicans, Candida glabrata, Candida krusei, Candida parapsilosis and Candida tropicalis). To perform MIC tests in this medium, dilutions of compounds are prepared in microtitre plates as described above. Fungal strains to be tested are grown and harvested in an identical manner to that described above, and each organism suspension was diluted in RPMI medium, containing 2% glucose and 0.135 M MOPS buffer (pH 7.0) to 0.5-2×10^4 cfu/mL, rather than in YAG medium. 80 μL of an organism suspension was added to each well of the plate containing drug dilutions.
(§7) This produced MIC plates with a drug range 50-0.05 mg/L and organism inocula of 1−2×10^4 cfu/mL. All plates were incubated for 24-48 h at 35° C. Growth was assessed by monitoring the optical density at 485 nm for each well. The MIC of a compound is the lowest drug concentration that inhibits growth of an organism by >80% compared with a drug free control.
as §5

For assay [8], the system named is Aspergillus fumigatus AF210. Description: MIC, RPMI medium. The following applies: for MIC: Aspergillus fumigatus, AF210, MIC banded into grades, read-out: MIC grade, A. fumigatus 210. The procedure:
as §1, §2, §6, §7, §5

The subject of assay [9] is Aspergillus fumigatus AF293. Description: MIC, RPMI medium. The following applies: for MIC: Aspergillus fumigatus, AF293, MIC banded into grades, read-out: MIC grade, A. fumigatus. The procedure:
as §1, §2, §6, §7, §5

For assay [10], the system named is Aspergillus niger. Description: MIC, RPMI medium. The following applies: MIC banded into grades; for MIC: Aspergillus niger, read-out: MIC grade, A. niger. As for the experimental part: as §1, §2, §6, §7, §5
For assay [11], the system named is Aspergillus terreus AT49. Kind of assay: MIC, RPMI medium. The following applies: for MIC: Aspergillus terreus, AT49, MIC banded into grades, read-out: MIC grade, A. terreus 49. As for the experimental part:
as §1, §2, §6, §7, §5

Assay [12] concerns Aspergillus terreus AT4. Kind of assay: MIC, RPMI medium. The following applies: for MIC: Aspergillus terreus, AT4, MIC banded into grades, read-out: MIC grade, A. terreus. The procedure:
as §1, §2, §6, §7, §5

Converted amounts (≈) assume the structure as drawn.

The term MIC denotes the lowest concentration found to suppress growth. On to `CSCCn1c(C)cc(-c2ccccc2)c1C(=O)C(=O)Nc1ccc(N2CCN(c3cc(C)cc(C)n3)CC2)cc1` [Example 133, N-{4-[4-(4,6-Dimethyl-pyridin-2-yl)-piperazin-1-yl]-phenyl}-2-[5-methyl-1-(2-methylsulfanyl-ethyl)-3-phenyl-1H-pyrrol-2-yl]-2-oxo-acetamide], for which the MIC in the assay with Aspergillus flavus [1] was 1 to 10 µg/mL (≈ 1.76 to 17.6 µM); in assay [2], below 1 µg/mL; in [3] it was below 1 µg/mL; in the assay with Aspergillus niger [4] it was below 1 µg/mL; in the assay with Aspergillus terreus AT49 [5], below 1 µg/mL; in the assay with Aspergillus terreus AT4 [6], below 1 µg/mL. The MIC with Aspergillus flavus [7] is above 10 µg/mL; in assay [8], below 1 µg/mL; in [9], below 1 µg/mL; in the assay with Aspergillus niger [10], below 1 µg/mL; with Aspergillus terreus AT49 [11] it was 1 to 10 µg/mL (≈ 1.76 to 17.6 µM); in the assay with Aspergillus terreus AT4 [12], 1 to 10 µg/mL (≈ 1.76 to 17.6 µM).
As to `Cc1cc(C)nc(N2CCN(c3ccc(NC(=O)C(=O)c4c(-c5ccccc5)cc(C)n4Cc4ccccn4)cc3)CC2)c1` [Example 91, N-{4-[4-(4,6-Dimethyl-pyridin-2-yl)-piperazin-1-yl]-phenyl}-2-(5-methyl-3-phenyl-1-pyridin-2-ylmethyl-1H-pyrrol-2-yl)-2-oxo-acetamide], the MIC in the assay with Aspergillus flavus [1] was above 10 µg/mL; in [2], 1 to 10 µg/mL (≈ 1.71 to 17.1 µM); in assay [3] it was 1 to 10 µg/mL (≈ 1.71 to 17.1 µM); with Aspergillus niger [4], above 10 µg/mL; in the assay with Aspergillus terreus AT49 [5], 1 to 10 µg/mL (≈ 1.71 to 17.1 µM); in the assay on Aspergillus terreus AT4 [6] it was above 10 µg/mL. For the same compound, the MIC (with Aspergillus flavus [7]; in assay [8]; in assay [9]; in the assay on Aspergillus niger [10]; in the assay on Aspergillus terreus AT49 [11]; with Aspergillus terreus AT4 [12]) was above 10 µg/mL each time.
In the case of `Cc1cc(-c2ccccc2)c(C(=O)C(=O)Nc2cccc3c2CCO3)n1C` [Example 23, N-(2,3-Dihydro-benzofuran-4-yl)-2-(1,5-dimethyl-3-phenyl-1H-pyrrol-2-yl)-2-oxo-acetamide], the minimal inhibitory concentration (MIC) in the assay with Aspergillus flavus [1] was below 1 µg/mL; in [2] it was 1 to 10 µg/mL (≈ 2.77 to 27.7 µM); in assay [3], below 1 µg/mL; with Aspergillus niger [4] it was below 1 µg/mL; with Aspergillus terreus AT49 [5], below 1 µg/mL; with Aspergillus terreus AT4 [6] it was below 1 µg/mL. The MIC with Aspergillus flavus [7] is below 1 µg/mL; in assay [8], 1 to 10 µg/mL (≈ 2.77 to 27.7 µM); in [9], 1 to 10 µg/mL (≈ 2.77 to 27.7 µM); in the assay with Aspergillus niger [10] it was 1 to 10 µg/mL (≈ 2.77 to 27.7 µM); with Aspergillus terreus AT49 [11], below 1 µg/mL; in the assay with Aspergillus terreus AT4 [12], below 1 µg/mL.
For `COCCc1cc(C)n(-c2ccccc2)c1C(=O)C(=O)Nc1ccc(N2CCN(c3cc(C)cc(C)n3)CC2)cc1` [Example 80, N-{4-[4-(4,6-Dimethyl-pyridin-2-yl)-piperazin-1-yl]-phenyl}-2-[3-(2-methoxy-ethyl)-5-methyl-1-phenyl-1H-pyrrol-2-yl]-2-oxo-acetamide], the MIC (in the assay with Aspergillus flavus [1]; in assay [2]; in assay [3]; in the assay on Aspergillus niger [4]; in the assay on Aspergillus terreus AT49 [5]; in the assay with Aspergillus terreus AT4 [6]) was above 10 µg/mL throughout. The MIC (in the assay with Aspergillus flavus [7]; in [8]; in assay [9]; in the assay on Aspergillus niger [10]; in the assay on Aspergillus terreus AT49 [11]; in the assay with Aspergillus terreus AT4 [12]) was above 10 µg/mL each time.
In the case of `Cc1cc(C)nc(N2CCN(c3ccc(NC(=O)C(=O)c4c(-c5ccccc5)cc(C(C)C)n4C)cc3)CC2)c1` [Example 20, N-{4-[4-(4,6-Dimethyl-pyridin-2-yl)-piperazin-1-yl]-phenyl}-2-(5-isopropyl-1-methyl-3-phenyl-1H-pyrrol-2-yl)-2-oxo-acetamide], the MIC with Aspergillus flavus [1] was above 10 µg/mL; in assay [2] it was below 1 µg/mL; in assay [3], above 10 µg/mL; in the assay with Aspergillus niger [4], above 10 µg/mL; with Aspergillus terreus AT49 [5] it was below 1 µg/mL; with Aspergillus terreus AT4 [6], below 1 µg/mL. Further, the MIC with Aspergillus flavus [7] is above 10 µg/mL; in assay [8], above 10 µg/mL; in [9], above 10 µg/mL; in the assay on Aspergillus niger [10], above 10 µg/mL; in the assay on Aspergillus terreus AT49 [11], 1 to 10 µg/mL (≈ 1.87 to 18.7 µM); in the assay with Aspergillus terreus AT4 [12] it was above 10 µg/mL.
Turning to `Cc1cc(-c2ccccc2)c(C(=O)C(=O)Nc2ccc(N3CCCCC3)c(F)c2)n1C` [Example 115, 2-(1,5-Dimethyl-3-phenyl-1H-pyrrol-2-yl)-N-(3-fluoro-4-piperidin-1-yl-phenyl)-2-oxo-acetamide], the MIC (with Aspergillus flavus [1]; in assay [2]; in [3]; in the assay on Aspergillus niger [4]; in the assay on Aspergillus terreus AT49 [5]; in the assay with Aspergillus terreus AT4 [6]) was below 1 µg/mL in each case. For the same compound, the MIC (in the assay on Aspergillus flavus [7]; in assay [8]; in assay [9]; with Aspergillus niger [10]; in the assay on Aspergillus terreus AT49 [11]; in the assay with Aspergillus terreus AT4 [12]) was below 1 µg/mL in each case.
In the case of `COC(=O)Cn1cc(-c2ccccc2)cc1C(=O)C(=O)Nc1ccc(N2CCN(c3cc(C)cc(C)n3)CC2)cc1` [Example 122, (2-{4-[4-(4,6-Dimethyl-pyridin-2-yl)-piperazin-1-yl]-phenylaminooxalyl}-4-phenyl-pyrrol-1-yl)-acetic acid methyl ester], the “MIC grade, A. flavus” value against Aspergillus flavus [1] and against Aspergillus flavus [7] was 1 (a grade of 1 represents an MIC of greater than 10 mg/L) throughout. Further, the “MIC grade, A. fumigatus 210” value in assay [2] was 2 (A grade of 2 represents an MIC of from 1 to 10 mg/L); in [8] (MIC banded into grades), 1 (a grade of 1 represents an MIC of greater than 10 mg/L). For the same compound, the “MIC grade, A. fumigatus” value in assay [3] is on record as 3 (A grade of 3 represents an MIC of less than 1 mg/L); in assay [9] (MIC banded into grades), 1 (a grade of 1 represents an MIC of greater than 10 mg/L). In addition, the “MIC grade, A. niger” value against Aspergillus niger [4] and against Aspergillus niger [10] was 2 (A grade of 2 represents an MIC of from 1 to 10 mg/L) in each case. In addition, the “MIC grade, A. terreus 49” value in the assay on Aspergillus terreus AT49 [5] and against Aspergillus terreus AT49 [11] (MIC banded into grades) was 1 (a grade of 1 represents an MIC of greater than 10 mg/L) throughout. Further, the “MIC grade, A. terreus” value with Aspergillus terreus AT4 [6] and with Aspergillus terreus AT4 [12] (MIC banded into grades) was 1 (a grade of 1 represents an MIC of greater than 10 mg/L) each time.
Turning to `Cc1cc(-c2ccccc2)c(C(=O)C(=O)Nc2ccc(N3CCN(c4ccccn4)CC3)c(F)c2)n1C` [Example 116, 2-(1,5-Dimethyl-3-phenyl-1H-pyrrol-2-yl)-N-[3-fluoro-4-(4-pyridin-2-yl-piperazin-1-yl)-phenyl]-2-oxo-acetamide], the MIC (in the assay with Aspergillus flavus [1]; in [2]; in assay [3]; in the assay on Aspergillus niger [4]; with Aspergillus terreus AT49 [5]; in the assay on Aspergillus terreus AT4 [6]) was below 1 µg/mL throughout. For the same compound, the MIC in the assay on Aspergillus flavus [7] was above 10 µg/mL; in assay [8], below 1 µg/mL; in assay [9] it was below 1 µg/mL; with Aspergillus niger [10], below 1 µg/mL; in the assay with Aspergillus terreus AT49 [11] it was below 1 µg/mL; with Aspergillus terreus AT4 [12], below 1 µg/mL.

Values taken from patent US8993574B2, “Pyrrole antifungal agents” (F2G Ltd, priority 2008, dated 2015).
